Experiment: Solubility determination (15 minutes at room temperature, HPLC)
Type: physicochemical
Settings: fifteen minutes
Protocol: 1 mL of buffer or of ultrapure (resistivity≥18.2 Mf cm) water was added to a pre-weighed, approximately twenty milligram aliquot of the substance to be measured. The resulting suspensions were stirred for 15 minutes at room temperature with magnetic stirrers. The suspensions were centrifuged and filtered through Millipore 0.2 μm PVDF filters, and the concentration of each filtrate (i.e., saturated solution) was determined using a general HPLC method. The pH of each saturated solution was measured with a Metrohm 713 pH meter.
To assess whether Form K and Form K′ are likely to have different bioavailabilities, comparative solubility measurements were carried out in physiologically relevant media. Samples of Form K and Form K′ were separately equilibrated in pure water, pH 2.0 buffer, and pH 6.8 buffer for fifteen minutes, and the solids were then separated from the solvents. The concentration of the compound in the filtrate (i.e., the solubility) was assessed in each case, and the solid residues were also monitored by powder X-ray diffraction. All six solid residues correspond to Form K, confirming that Form K′ rapidly incorporates water into its lattice when suspended in an aqueous environment even when the solubility is low. While the solubilities in pure water and at pH 6.8 were below the limit of quantitation of 0.0001 mg/mL, the solubilities at pH 2.0 could be measured. […] Thus, the bioavailabilities of the two forms are expected to be similar, and precise control of the water content (and, thereby, the solid form) is presumably not necessary from a scientific point of view. Given that the critical water activity is in the range aH2O=0.11-0.17, the hydrated Form K is likely to be the more easily stabilized of the two forms under ambient laboratory conditions.

Structure (SMILES): N#Cc1ccc(N2CCN(Cc3ccc(COc4cccc5c4CN([C@H]4CCC(=O)NC4=O)C5=O)cc3)CC2)c(F)c1.O [Form K of a free base of Compound 1]
- solubility at pH 2.0 (pH 2.0 buffer): 0.96 mg/mL
- solid residue after solubility measurement (powder X-ray diffraction) (pure water, pH 2.0 buffer and pH 6.8 buffer): Form K

— patent US12391672B2, “Solid forms comprising (S)-4-(4-(4-(((2-(2,6-dioxopiperidin-3-yl)-1-oxoisoindolin-4-yl)oxy)methyl)benzyl)piperazin-1-yl)-3-fluorobenzonitrile and salts thereof, and compositions comprising and methods of using the same” (Celgene Corporation, priority 2019, dated 2025)
